Values quoted from earlier work, collected in patent publication US20200392071A1, “Gene cluster for the biosynthetic production of tetracycline compounds in a heterologous host” (HELMHOLTZ-ZENTRUM FÜR INFEKTIONSFORSCHUNG GMBH, priority 2017, published 2020).

Tests used:
Gram-negative pathogens = conditions: patients with urinary tract infections caused by Gram-negative pathogens; Molnar et al. 1977
[1] = test system: tetracycline-resistant pathogens; conditions: Proctor et al. 1978

**Q.** Which “outcome in a small phase II clinical study” value (Gram-negative pathogens) does the source give for `CC(=O)C1=C(O)C(N)C2Cc3c(c(O)c4c(O)c(C)ccc4c3C)C(=O)C2(O)C1=O` (centres unmarked) [chelocardin, Chelocardin] here?
**A.** promising

**Q.** And the “activity against tetracycline-resistant pathogens” value [1]?
**A.** active
